According to patent US7417054B2, “Naphthyridine compounds” (Janssen Pharmaceutica N.V., priority 2005, dated 2008):
Like-named read-outs stand apart in the source and are kept apart here.

Tests used:
[1] = molecular target: T1, human H3 receptor (Homo sapiens, UniProt Q9Y5N1); test: H3 receptor binding, N-[3H]-α-methylhistamine displacement on SK-N-MC cell membranes; conditions: cloned human H3 receptor in SK-N-MC cell membranes; 0.8 nM N-[3H]-α-methylhistamine; 60 min at 25° C.
T1 construct: expressed in transfected cells; host or cells: SK-N-MC cells
T1 sequence (Q9Y5N1 whole entry): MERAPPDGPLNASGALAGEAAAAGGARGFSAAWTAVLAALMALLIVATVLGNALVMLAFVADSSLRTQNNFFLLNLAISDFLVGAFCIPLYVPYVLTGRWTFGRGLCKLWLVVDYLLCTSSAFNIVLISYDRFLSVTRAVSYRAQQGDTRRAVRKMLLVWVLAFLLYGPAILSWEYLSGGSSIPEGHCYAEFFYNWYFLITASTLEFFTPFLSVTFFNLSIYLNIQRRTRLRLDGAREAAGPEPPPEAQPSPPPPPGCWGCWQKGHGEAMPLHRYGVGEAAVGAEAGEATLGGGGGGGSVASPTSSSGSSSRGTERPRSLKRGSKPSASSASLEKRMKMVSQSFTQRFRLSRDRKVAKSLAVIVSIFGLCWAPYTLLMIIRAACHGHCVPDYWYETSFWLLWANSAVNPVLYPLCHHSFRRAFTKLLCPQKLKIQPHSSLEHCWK

[2] = molecular target: T2, human SERT (Homo sapiens, UniProt P31645); test: Human SERT binding, 3H-citalopram displacement on HEK293 membranes; conditions: HEK293 membranes expressing the human SERT, rt for 1 h
T2 construct: expressed in transfected cells; host or cells: HEK293
T2 sequence (P31645 whole entry): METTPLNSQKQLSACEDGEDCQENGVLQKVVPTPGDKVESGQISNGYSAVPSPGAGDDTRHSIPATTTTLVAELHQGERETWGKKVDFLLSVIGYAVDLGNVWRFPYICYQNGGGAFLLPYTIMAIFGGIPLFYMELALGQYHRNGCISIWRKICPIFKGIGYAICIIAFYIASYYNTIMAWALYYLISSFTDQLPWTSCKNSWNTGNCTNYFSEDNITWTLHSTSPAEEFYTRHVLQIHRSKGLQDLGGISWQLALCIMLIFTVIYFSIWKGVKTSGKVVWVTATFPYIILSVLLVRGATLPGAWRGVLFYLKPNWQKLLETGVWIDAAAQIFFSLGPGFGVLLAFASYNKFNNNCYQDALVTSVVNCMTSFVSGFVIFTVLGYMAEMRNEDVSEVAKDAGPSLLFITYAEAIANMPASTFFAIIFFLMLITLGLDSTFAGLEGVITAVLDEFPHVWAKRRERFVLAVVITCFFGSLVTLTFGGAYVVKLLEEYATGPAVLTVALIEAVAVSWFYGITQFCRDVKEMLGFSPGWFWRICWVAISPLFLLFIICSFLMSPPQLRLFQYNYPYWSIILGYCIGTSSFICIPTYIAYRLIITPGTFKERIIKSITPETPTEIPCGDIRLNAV
Protocol: Homogenized HEK293 (Human Embryonic Kidney) membranes expressing the human SERT were incubated with ^3H-citalopram (SERT) at rt for 1 h in 50 mM Tris, 120 mM NaCl, 5 mM KCl (pH 7.4). […] The membranes were washed and the radioactivity was counted as above.

[3] = molecular target: Rat SERT (Rattus norvegicus, UniProt P31652); test: Rat brain SERT binding, [3H]-Citalopram displacement on rat brain membranes
Rat SERT, sequence (P31652 whole entry): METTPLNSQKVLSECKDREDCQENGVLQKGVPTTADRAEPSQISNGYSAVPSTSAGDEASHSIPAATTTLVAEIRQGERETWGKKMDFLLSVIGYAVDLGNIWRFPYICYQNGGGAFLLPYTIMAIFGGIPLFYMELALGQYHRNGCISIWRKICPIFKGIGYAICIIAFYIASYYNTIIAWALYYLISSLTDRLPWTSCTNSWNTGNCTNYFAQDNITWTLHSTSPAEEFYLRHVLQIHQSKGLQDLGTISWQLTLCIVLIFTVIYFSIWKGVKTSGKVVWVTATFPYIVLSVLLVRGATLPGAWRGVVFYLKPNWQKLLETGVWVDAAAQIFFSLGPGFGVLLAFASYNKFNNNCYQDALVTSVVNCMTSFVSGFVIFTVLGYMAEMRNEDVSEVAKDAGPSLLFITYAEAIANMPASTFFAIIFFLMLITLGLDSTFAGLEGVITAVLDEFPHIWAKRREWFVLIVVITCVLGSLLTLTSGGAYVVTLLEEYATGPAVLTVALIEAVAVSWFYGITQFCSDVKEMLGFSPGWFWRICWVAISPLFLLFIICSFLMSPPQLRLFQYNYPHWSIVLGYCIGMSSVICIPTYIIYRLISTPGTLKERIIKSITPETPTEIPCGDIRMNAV
Protocol: The supernatant was removed and re-centrifuged at 15,000 rpm for 30 min. […] Membranes were incubated with 0.6 nM [^3H]-Citalopram plus/minus test compounds for 60 min at 25° C. and harvested by rapid filtration over GF/C glass fiber filters (pretreated with 0.3% polyethylenimine) followed by four washes with ice-cold buffer.

[4] = read-out: Rat SERT Ki, rat brain membranes without cerebellum, 0.6 nM [3H]-Citalopram, 60 min at 25° C.
[5] = Rat SERT Ki (nM), rat brain membranes without cerebellum, 0.6 nM [3H]-Citalopram, 60 min at 25° C.

Ki [1]	Ki [2]	Ki [3]	Compound	Ki [3, 4]	Ki [3, 5]
264 nM	–	–	COc1ccc(C2CN(C)Cc3cc(OCCCN4CCC(F)(F)CC4)ncc32)cc1 (centres unmarked) [Example 28, 7-[3-(4,4-Difluoro-piperidin-1-yl)-propoxy]-4-(4-methoxy-phenyl)-2-methyl-1,2,3,4-tetrahydro-[2,6]naphthyridine]	–	129 nM
16 nM	30 nM	–	CCN(CC)CCCOc1cc2c(cn1)C(c1ccc(Cl)c(Cl)c1)CN(C)C2 (centres unmarked) [Example 30, {3-[8-(3,4-Dichloro-phenyl)-6-methyl-5,6,7,8-tetrahydro-[2,6]naphthyridin-3-yloxy]-propyl}-diethyl-amine]	33 nM	–
15 nM	106 nM	–	CN1Cc2cc(OCCCN3CCCCC3)ncc2C(c2ccc(Cl)cc2)C1 (centres unmarked) [Example 36, 4-(4-Chloro-phenyl)-2-methyl-7-(3-piperidin-1-yl-propoxy)-1,2,3,4-tetrahydro-[2,6]naphthyridine]	22 nM	–
–	–	87 nM	COc1ccc(C2CNCc3cc(OC4CCN(Cc5ccccc5)CC4)ncc32)cc1 (centres unmarked) [Example 22, 7-(1-Benzyl-piperidin-4-yloxy)-4-(4-methoxy-phenyl)-1,2,3,4-tetrahydro-[2,6]-naphthyridine]	–	–
7 nM	147 nM	26 nM	CN1Cc2cc(OCCCN3CCCCC3)ncc2C(c2ccc(F)c(Cl)c2)C1 (centres unmarked) [Example 35, 4-(3-Chloro-4-fluoro-phenyl)-2-methyl-7-(3-piperidin-1-yl-propoxy)-1,2,3,4-tetrahydro-[2,6]naphthyridine]	–	–
3 nM	–	–	COc1ccc(C2CNCc3cc(OCCC4CCCN4C)ncc32)cc1 (centres unmarked) [Example 9, 4-(4-Methoxy-phenyl)-7-[2-(1-methyl-pyrrolidin-2-yl)-ethoxy]-1,2,3,4-tetrahydro-[2,6]-naphthyridine]	–	43 nM
–	–	106 nM	COc1ccc(C2CNCc3cc(OC4CCNCC4)ncc32)cc1 (centres unmarked) [Example 42, 4-(4-Methoxy-phenyl)-7-(piperidin-4-yloxy)-1,2,3,4-tetrahydro-[2,6]naphthyridine]	–	–

Further lines, the compound ahead of its results:

Compound	Ki [1]	Ki [2]	Ki [3]	Ki [3, 4]	Ki [3, 5]
CCN(CC)CCCOc1cc2c(cn1)C(c1ccc(OC)cc1)CNC2 (centres unmarked) [Example 20, Diethyl-{3-[8-(4-methoxy-phenyl)-5,6,7,8-tetrahydro-[2,6]naphthyridin-3-yloxy]-propyl}-amine]	23 nM	226 nM	–	129 nM	–
Clc1ccc(C2CNCc3cc(OCCCN4CCCCC4)ncc32)cc1Cl (single isomer, unassigned; enantiomer a) [Example 45, 4-(3,4-Dichloro-phenyl)-7-(3-piperidin-1-yl-propoxy)-1,2,3,4-tetrahydro-[2,6]-naphthyridine (enantiomer A)]	4 nM	–	101 nM	–	–
COc1ccc(C2CN(C)Cc3cc(OCCCN4CCCCC4)ncc32)cc1 (centres unmarked) [Example 8, 4-(4-Methoxy-phenyl)-2-methyl-7-(3-piperidin-1-yl-propoxy)-1,2,3,4-tetrahydro-[2,6]-naphthyridine]	12 nM	107 nM	–	34 nM	–
COc1ccc(C2CN(C)Cc3cc(OCCC4CCCN4C)ncc32)cc1 (centres unmarked) [Example 10, 4-(4-Methoxy-phenyl)-2-methyl-7-[2-(1-methyl-pyrrolidin-2-yl)-ethoxy]-1,2,3,4-tetrahydro-[2,6]-naphthyridine]	4 nM	–	20 nM	–	–
CN1Cc2cc(OCCCN3CCCCC3)ncc2C(c2ccc(Cl)c(Cl)c2)C1 (single isomer, unassigned; enantiomer b) [Example 39, 4-(3,4-Dichloro-phenyl)-2-methyl-7-(3-piperidin-1-yl-propoxy)-1,2,3,4-tetrahydro-[2,6]-naphthyridine (enantiomer B)]	42 nM	–	–	–	233 nM
CN1Cc2cc(OCCCN3CCCCC3)ncc2C(c2ccc(Cl)c(Cl)c2)C1 (single isomer, unassigned; enantiomer a) [Example 38, 4-(3,4-Dichloro-phenyl)-2-methyl-7-(3-piperidin-1-yl-propoxy)-1,2,3,4-tetrahydro-[2,6]-naphthyridine (enantiomer A)]	50 nM	–	–	–	56 nM
